Measured values reported in patent US20030220369A1, “Heterocyclic sulfonamide derivatives and their use for potentiating glutamate receptor function” (priority 2003, published 2003).

melting point: 86 to 87 °C
Structure (SMILES): CC(C)S(=O)(=O)NCC(C)(F)c1ccc(-c2cccc3c2CC(=O)N3)cc1 (stereo not shown) [Example 9, 4-[4-(1-fluoro-1-methyl-2-{[methylethyl)sulfonylamino}-ethyl)phenyl]indolin-2one]
